Source: ChEMBL document CHEMBL4376834, “Discovery of 4H-Chromen-4-one Derivatives as a New Class of Selective Rho Kinase (ROCK) Inhibitors, which Showed Potent Activity in ex Vivo Diabetic Retinopathy Models” (J Med Chem, 2019)

Tests used:
[1] = Inhibition of recombinant full-length human ATR/ATRIP M211T mutant using GST-cMyc-p53 as substrate incubated for 40 mins by fluorescence assay
[2] = target: Serine/threonine-protein kinase PLK1 (Homo sapiens, UniProt P53350); assay: Inhibition of recombinant full-length human Plk1 using casein as substrate incubated for 40 mins in presence of [gamma33P]ATP by radiometric scintillation counting analysis
Serine/threonine-protein kinase PLK1, sequence (P53350 whole entry): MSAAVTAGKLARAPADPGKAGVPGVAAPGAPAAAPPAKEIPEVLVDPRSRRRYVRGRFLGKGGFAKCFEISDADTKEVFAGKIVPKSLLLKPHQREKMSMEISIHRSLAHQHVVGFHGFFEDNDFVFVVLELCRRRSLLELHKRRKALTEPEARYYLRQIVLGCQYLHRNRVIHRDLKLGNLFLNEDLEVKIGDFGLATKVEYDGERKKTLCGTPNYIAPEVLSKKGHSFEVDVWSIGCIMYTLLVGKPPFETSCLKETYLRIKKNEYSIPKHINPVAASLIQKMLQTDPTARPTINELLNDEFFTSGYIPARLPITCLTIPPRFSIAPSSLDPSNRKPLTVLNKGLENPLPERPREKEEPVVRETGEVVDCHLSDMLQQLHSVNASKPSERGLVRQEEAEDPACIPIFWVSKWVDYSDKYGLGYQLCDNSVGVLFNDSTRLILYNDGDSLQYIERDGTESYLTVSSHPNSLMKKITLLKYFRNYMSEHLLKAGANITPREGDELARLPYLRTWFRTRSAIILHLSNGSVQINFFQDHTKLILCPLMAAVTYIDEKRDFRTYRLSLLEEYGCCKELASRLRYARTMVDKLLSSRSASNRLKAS

[3] = target: Protein kinase C theta type (Homo sapiens, UniProt Q04759); assay: Inhibition of recombinant full length human PKCtheta using histone H1 as substrate incubated for 40 mins in presence of [gamma33P]ATP by radiometric scintillation counting analysis
Protein kinase C theta type, sequence (Q04759 whole entry): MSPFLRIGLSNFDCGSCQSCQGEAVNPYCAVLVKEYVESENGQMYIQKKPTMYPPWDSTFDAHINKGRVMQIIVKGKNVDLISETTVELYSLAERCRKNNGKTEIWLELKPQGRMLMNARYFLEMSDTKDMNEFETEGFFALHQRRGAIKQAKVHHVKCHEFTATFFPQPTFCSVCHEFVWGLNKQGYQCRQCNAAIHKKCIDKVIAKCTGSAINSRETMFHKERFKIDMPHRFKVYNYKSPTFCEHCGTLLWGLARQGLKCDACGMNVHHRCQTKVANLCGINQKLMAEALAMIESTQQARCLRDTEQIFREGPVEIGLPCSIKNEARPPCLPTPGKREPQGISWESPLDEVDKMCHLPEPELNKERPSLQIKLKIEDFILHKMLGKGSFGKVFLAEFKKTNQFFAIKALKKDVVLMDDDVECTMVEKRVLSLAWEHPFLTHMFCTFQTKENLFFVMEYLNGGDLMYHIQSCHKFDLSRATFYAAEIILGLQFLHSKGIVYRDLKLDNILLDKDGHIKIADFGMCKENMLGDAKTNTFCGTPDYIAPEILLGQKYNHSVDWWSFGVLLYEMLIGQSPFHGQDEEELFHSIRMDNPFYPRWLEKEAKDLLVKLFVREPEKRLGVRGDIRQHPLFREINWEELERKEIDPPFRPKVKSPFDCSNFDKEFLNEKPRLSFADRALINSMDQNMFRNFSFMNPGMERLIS

[4] = target: Serine/threonine-protein kinase A-Raf (Homo sapiens, UniProt P10398); assay: Inhibition of human recombinant A-Raf (273 to end residues) using myelin as substrate incubated for 40 mins in presence of [gamma-33ATP] by radiometric scintillation counting analysis
Serine/threonine-protein kinase A-Raf, sequence (P10398 whole entry): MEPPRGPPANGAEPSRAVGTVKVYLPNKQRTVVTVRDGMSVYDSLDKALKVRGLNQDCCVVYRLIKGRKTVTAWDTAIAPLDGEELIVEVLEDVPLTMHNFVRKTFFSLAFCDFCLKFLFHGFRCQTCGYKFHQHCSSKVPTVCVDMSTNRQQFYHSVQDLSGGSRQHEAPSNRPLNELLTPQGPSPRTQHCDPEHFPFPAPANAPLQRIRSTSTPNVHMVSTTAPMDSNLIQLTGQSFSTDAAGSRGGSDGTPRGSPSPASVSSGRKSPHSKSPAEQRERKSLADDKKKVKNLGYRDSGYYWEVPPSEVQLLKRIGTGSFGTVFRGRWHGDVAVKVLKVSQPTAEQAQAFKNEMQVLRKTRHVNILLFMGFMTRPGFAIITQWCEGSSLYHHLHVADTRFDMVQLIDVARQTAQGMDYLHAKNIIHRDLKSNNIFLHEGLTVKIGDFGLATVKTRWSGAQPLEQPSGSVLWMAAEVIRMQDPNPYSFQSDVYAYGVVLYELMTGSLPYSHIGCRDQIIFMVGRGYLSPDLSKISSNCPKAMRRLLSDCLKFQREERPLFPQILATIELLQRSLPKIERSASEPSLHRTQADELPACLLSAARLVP

[5] = target: 3-phosphoinositide-dependent protein kinase 1 (Homo sapiens, UniProt O15530); assay: Inhibition of recombinant human PDK1 (52 to end residues) using KTFCGTPEYLAPE as substrate incubated for 40 mins in presence of [gamma33P]ATP by radiometric scintillation counting analysis
3-phosphoinositide-dependent protein kinase 1, sequence (O15530 whole entry): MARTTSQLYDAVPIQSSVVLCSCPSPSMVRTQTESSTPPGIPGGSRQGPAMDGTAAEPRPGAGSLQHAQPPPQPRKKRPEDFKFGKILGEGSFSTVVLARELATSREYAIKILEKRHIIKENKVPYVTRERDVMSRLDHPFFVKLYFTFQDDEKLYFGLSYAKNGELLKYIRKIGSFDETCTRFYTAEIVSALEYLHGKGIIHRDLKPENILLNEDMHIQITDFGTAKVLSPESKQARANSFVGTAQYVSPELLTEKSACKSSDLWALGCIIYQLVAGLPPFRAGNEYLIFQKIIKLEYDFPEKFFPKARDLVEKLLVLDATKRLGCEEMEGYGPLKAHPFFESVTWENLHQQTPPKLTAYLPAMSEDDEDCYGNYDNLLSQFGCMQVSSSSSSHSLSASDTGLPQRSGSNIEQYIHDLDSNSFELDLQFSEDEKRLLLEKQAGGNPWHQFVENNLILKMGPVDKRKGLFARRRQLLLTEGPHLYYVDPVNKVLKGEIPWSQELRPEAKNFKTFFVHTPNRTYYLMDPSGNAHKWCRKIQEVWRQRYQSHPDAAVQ

[6] = target: Mitogen-activated protein kinase 10 (Homo sapiens, UniProt P53779); assay: Inhibition of recombinant full length human JNK3 using peptide substrate after 40 mins by [gamma-33ATP] by radiometric scintillation counting analysis
Mitogen-activated protein kinase 10, sequence (P53779 whole entry): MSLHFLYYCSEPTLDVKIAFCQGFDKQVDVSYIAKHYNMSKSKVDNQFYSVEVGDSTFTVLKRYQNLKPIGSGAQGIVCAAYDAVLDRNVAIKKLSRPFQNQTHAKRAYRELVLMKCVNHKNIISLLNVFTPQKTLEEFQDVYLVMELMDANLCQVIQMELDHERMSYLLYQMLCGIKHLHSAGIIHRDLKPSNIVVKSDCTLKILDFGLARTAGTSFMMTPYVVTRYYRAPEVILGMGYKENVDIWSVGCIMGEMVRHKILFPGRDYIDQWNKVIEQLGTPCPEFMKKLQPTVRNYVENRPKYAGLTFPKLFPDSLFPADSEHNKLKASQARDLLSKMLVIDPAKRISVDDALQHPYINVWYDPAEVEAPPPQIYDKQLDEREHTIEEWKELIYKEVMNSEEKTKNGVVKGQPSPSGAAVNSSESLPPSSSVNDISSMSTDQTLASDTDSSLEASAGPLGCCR

[7] = target: Aurora kinase B (Homo sapiens, UniProt Q96GD4); assay: Inhibition of recombinant full length human AURORA-B using AKRRRLSSLRA as substrate incubated for 40 mins in presence of [gamma-33P]ATP and 10 uM ATP by radiometric scintillation counting analysis
Aurora kinase B, sequence (Q96GD4 whole entry): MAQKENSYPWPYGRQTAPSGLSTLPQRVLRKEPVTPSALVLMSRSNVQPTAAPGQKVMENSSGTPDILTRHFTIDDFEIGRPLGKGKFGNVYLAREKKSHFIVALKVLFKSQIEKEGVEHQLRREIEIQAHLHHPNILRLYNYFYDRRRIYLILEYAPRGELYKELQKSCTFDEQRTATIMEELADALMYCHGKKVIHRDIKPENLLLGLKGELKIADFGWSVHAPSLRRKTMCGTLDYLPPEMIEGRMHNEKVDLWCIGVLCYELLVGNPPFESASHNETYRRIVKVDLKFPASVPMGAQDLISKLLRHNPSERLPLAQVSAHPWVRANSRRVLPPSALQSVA

[8] = target: RAC-gamma serine/threonine-protein kinase (Homo sapiens, UniProt Q9Y243, S472D); assay: Inhibition of recombinant human PKBgamma S472D mutant (117 to end residues) using GRPRTSSFAEGKK as substrate incubated for 40 mins in presence of [gamma33P]ATP by radiometric scintillation counting analysis
RAC-gamma serine/threonine-protein kinase, sequence (Q9Y243 2-479 S472D limits assumed): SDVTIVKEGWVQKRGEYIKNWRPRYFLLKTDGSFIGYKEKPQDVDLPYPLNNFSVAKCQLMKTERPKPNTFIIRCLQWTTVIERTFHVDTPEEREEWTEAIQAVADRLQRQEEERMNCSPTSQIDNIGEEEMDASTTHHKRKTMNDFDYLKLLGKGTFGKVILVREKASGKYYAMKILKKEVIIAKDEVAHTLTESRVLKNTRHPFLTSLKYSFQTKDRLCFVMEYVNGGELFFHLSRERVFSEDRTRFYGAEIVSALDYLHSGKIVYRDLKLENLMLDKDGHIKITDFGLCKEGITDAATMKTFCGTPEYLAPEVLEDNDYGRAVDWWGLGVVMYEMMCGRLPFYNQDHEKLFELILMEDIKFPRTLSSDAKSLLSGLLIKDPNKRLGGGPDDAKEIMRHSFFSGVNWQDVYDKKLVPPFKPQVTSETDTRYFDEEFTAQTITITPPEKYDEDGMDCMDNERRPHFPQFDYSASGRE

[9] = target: Activin receptor type-1B (Homo sapiens, UniProt P36896); assay: Inhibition of human recombinant ALK4 (150 to end residues) using casein as substrate incubated for 40 mins in presence of [gamma-33P]ATP by radiometric scintillation counting analysis
Activin receptor type-1B, sequence (P36896 whole entry): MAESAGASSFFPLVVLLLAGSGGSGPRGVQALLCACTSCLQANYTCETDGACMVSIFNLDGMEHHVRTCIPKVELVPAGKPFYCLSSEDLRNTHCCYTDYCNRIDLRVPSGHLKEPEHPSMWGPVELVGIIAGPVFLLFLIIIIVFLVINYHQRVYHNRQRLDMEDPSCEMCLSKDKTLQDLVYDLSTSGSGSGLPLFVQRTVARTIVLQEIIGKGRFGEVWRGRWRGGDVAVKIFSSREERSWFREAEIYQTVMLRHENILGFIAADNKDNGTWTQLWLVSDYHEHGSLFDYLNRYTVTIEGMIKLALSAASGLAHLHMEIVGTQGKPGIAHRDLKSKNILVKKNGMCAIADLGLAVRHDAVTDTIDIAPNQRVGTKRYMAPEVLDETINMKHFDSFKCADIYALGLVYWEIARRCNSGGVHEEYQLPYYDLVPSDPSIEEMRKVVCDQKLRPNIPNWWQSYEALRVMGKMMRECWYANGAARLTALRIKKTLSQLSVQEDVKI

CN(C)c1ccc(C(=O)Nc2cccc(NC(=O)COc3ccc4c(=O)ccoc4c3)c2)cc1
IC50 [1]: > 10 µM
IC50 [2]: > 10 µM
IC50 [3]: > 10 µM
IC50 [4]: > 10 µM
IC50 [5]: > 10 µM
IC50 [6]: > 10 µM
IC50 [7]: 1.24 µM
IC50 [8]: > 10 µM
IC50 [9]: > 10 µM
